The supplement of paper PMC10307832

Compound: COC1=C(C=C(C=C1)C2=CC3=NC=CN3C(=N2)NC4=C(C=CC=N4)C(=O)N)OC [BAY61-3606] + COc1cc2c(Oc3ccc(NC(=O)C4(C(=O)Nc5ccc(F)cc5)CC4)cc3F)ccnc2cc1OCCCN1CCOCC1 [Foretinib] (partner 0.25 µM)
Assay: relative viability (nuclei count vs DMSO), 5 days (fraction); higher = more cells survive
Conditions: first compound 0.02 µM
Method in brief: (§1)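 Lung cancer cell lines were seeded in 1536-well plates and dosed by pin tool the next day, with either a single drug or a fixed anchor-drug dose combined with five library-drug doses (not always all listed) spaced in √10 steps. Five days later, one step fixed the cells and stained their nuclei (final 0.05% Triton X-100, 1% formaldehyde, 1 ug/ml Hoechst), and nuclei were counted on 4× images. Relative viability is the nuclei count in treated wells divided by the count in vehicle wells, and each value is the median of duplicate plates.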

Cell Line	relative viability
RERF-LC-KJ	0.899
NCI-H1651	0.886
NCI-H1734	0.825
NCI-H596	0.768
LCLC-97TM1	0.92
EMC-BAC-2	1.1
NCI-H2087	1.21
NCI-H727	0.919
LK-2	1.24
NCI-H2126	1.4
NCI-H1793	0.79
H3255	0.969
LC-2-ad	1.05
LU99A	0.915
ChaGo-K-1	0.868
NCI-H358	0.773
NCI-H322M	1.12
HCC-78	0.519
LXF-289	0.966
BEN	0.701
HARA	0.926
SW 900	0.826
HCC-827	1.04
LOU-NH91	0.95
A-427	1.16
NCI-H647	1.24
NCI-H1755	0.932
NCI-H650	1.1
NCI-H3122	0.952
NCI-H441	0.979

Same assay, conditions: first compound 0.06325 µM

Cell Line	relative viability
RERF-LC-KJ	0.922
NCI-H1651	0.713
NCI-H1734	0.79
NCI-H596	0.761
LCLC-97TM1	0.943
EMC-BAC-2	0.992
NCI-H2087	1.08
NCI-H727	0.931
LK-2	1.19
NCI-H2126	1.21
NCI-H1793	0.674
H3255	1
LC-2-ad	0.83
LU99A	0.656
ChaGo-K-1	0.834
NCI-H358	0.457

Cell Line	relative viability
NCI-H322M	0.91
HCC-78	0.516
LXF-289	0.971
BEN	0.69
HARA	0.76
SW 900	0.949
HCC-827	1.01
LOU-NH91	0.916
A-427	1.01
NCI-H647	1.1
PC-3 [JPC-3]	1.03
NCI-H1755	0.867
NCI-H650	1.02
NCI-H3122	1.07
NCI-H441	1.12

Same assay, conditions: first compound 0.2 µM

Cell Line	relative viability
RERF-LC-KJ	0.828
NCI-H1651	0.765
NCI-H1734	0.743
NCI-H596	0.841
LCLC-97TM1	0.962
EMC-BAC-2	1.02
NCI-H2087	1.05
NCI-H727	0.887
LK-2	1
NCI-H2126	1.06
H3255	0.841
LC-2-ad	0.971
LU99A	0.858
ChaGo-K-1	0.93
NCI-H358	0.652
NCI-H322M	0.981
HCC-78	0.568
LXF-289	0.978
BEN	0.723
HARA	0.832
SW 900	0.571
HCC-827	1.11
LOU-NH91	0.985
A-427	1.04
NCI-H647	1.14
PC-3 [JPC-3]	1.08
NCI-H1755	0.974
NCI-H650	1.02
NCI-H3122	0.94
NCI-H441	1.15

Same assay, conditions: first compound 0.6325 µM

Cell Line	relative viability
RERF-LC-KJ	0.886
NCI-H1651	0.88
NCI-H1734	0.836
NCI-H596	0.844
LCLC-97TM1	1.04
EMC-BAC-2	1.11
NCI-H2087	1.06
NCI-H727	0.985
LK-2	1.32
NCI-H2126	1.13
NCI-H1793	0.692
H3255	0.995
LC-2-ad	1.11
LU99A	0.63
ChaGo-K-1	0.948
NCI-H358	0.637

Cell Line	relative viability
NCI-H322M	1.03
HCC-78	0.545
LXF-289	0.988
BEN	0.654
HARA	0.887
SW 900	1.11
HCC-827	1.07
LOU-NH91	0.976
A-427	1.24
NCI-H647	1.27
PC-3 [JPC-3]	1.06
NCI-H1755	0.913
NCI-H650	1.09
NCI-H3122	0.962
NCI-H441	0.862

Same assay, conditions: first compound 2 µM

Cell Line	relative viability
RERF-LC-KJ	0.779
NCI-H1651	0.739
NCI-H1734	0.411
NCI-H596	0.726
LCLC-97TM1	0.765
EMC-BAC-2	0.738
NCI-H2087	0.924
NCI-H727	0.8
LK-2	0.768
NCI-H2126	0.959
NCI-H1793	0.476
H3255	0.829
LC-2-ad	0.653
LU99A	0.526
ChaGo-K-1	0.788
NCI-H358	0.286

Cell Line	relative viability
NCI-H322M	0.831
HCC-78	0.578
LXF-289	0.944
BEN	0.911
HARA	0.631
SW 900	0.586
HCC-827	1.03
LOU-NH91	0.823
A-427	0.925
NCI-H647	0.878
PC-3 [JPC-3]	0.949
NCI-H1755	0.882
NCI-H650	0.8
NCI-H3122	0.969
NCI-H441	0.754

Compound: COC1=C(C=C(C=C1)C2=CC3=NC=CN3C(=N2)NC4=C(C=CC=N4)C(=O)N)OC [BAY61-3606] + Cc1cc(Nc2cc(N3CCN(C)CC3)nc(Sc3ccc(NC(=O)C4CC4)cc3)n2)n[nH]1 [Tozasertib] (partner 0.1 µM)
Assay: as above
Conditions: first compound 0.02 µM
Method in brief: as §1

Cell Line	relative viability
RERF-LC-KJ	0.532
NCI-H1651	0.726
NCI-H1734	0.238
NCI-H596	1.2
LCLC-97TM1	0.17
EMC-BAC-2	0.288
NCI-H2087	0.223
HCC-44	0.91
NCI-H727	0.799
LK-2	0.19
NCI-H2126	0.895
NCI-H1793	0.313
H3255	0.6
LC-2-ad	0.404
LU99A	0.279
ChaGo-K-1	0.237

Cell Line	relative viability
NCI-H358	0.108
NCI-H322M	0.498
HCC-78	0.499
LXF-289	0.227
BEN	0.489
HARA	0.144
SW 900	0.576
HCC-827	0.412
LOU-NH91	0.617
A-427	0.222
NCI-H647	0.339
NCI-H1755	0.681
NCI-H650	0.795
NCI-H3122	0.456
NCI-H441	0.636

Same assay, conditions: first compound 0.06325 µM

Cell Line	relative viability
RERF-LC-KJ	0.435
NCI-H1651	0.488
NCI-H1734	0.243
NCI-H596	0.941
LCLC-97TM1	0.184
EMC-BAC-2	0.19
NCI-H2087	0.253
NCI-H727	0.593
LK-2	0.163
NCI-H2126	0.485
NCI-H1793	0.227
H3255	0.64
LC-2-ad	0.308
LU99A	0.216
ChaGo-K-1	0.21
NCI-H358	0.111

Cell Line	relative viability
NCI-H322M	0.477
HCC-78	0.317
LXF-289	0.183
BEN	0.494
HARA	0.13
SW 900	0.582
HCC-827	0.415
LOU-NH91	0.363
A-427	0.183
NCI-H647	0.176
PC-3 [JPC-3]	0.891
NCI-H1755	0.422
NCI-H650	0.263
NCI-H3122	0.262
NCI-H441	0.558

Same assay, conditions: first compound 0.2 µM

Cell Line	relative viability
RERF-LC-KJ	0.399
NCI-H1651	0.503
NCI-H1734	0.222
NCI-H596	0.746
LCLC-97TM1	0.233
EMC-BAC-2	0.243
NCI-H2087	0.166
HCC-44	0.832
NCI-H727	0.521
LK-2	0.193
NCI-H2126	0.801
H3255	0.54
LC-2-ad	0.387
LU99A	0.217
ChaGo-K-1	0.232
NCI-H358	0.107

Cell Line	relative viability
NCI-H322M	0.48
HCC-78	0.312
LXF-289	0.194
BEN	0.648
HARA	0.11
SW 900	0.372
HCC-827	0.373
LOU-NH91	0.473
A-427	0.171
NCI-H647	0.167
PC-3 [JPC-3]	0.889
NCI-H1755	0.49
NCI-H650	0.648
NCI-H3122	0.377
NCI-H441	0.363

Same assay, conditions: first compound 0.6325 µM

Cell Line	relative viability
RERF-LC-KJ	0.368
NCI-H1651	0.55
NCI-H1734	0.227
NCI-H596	0.844
LCLC-97TM1	0.147
EMC-BAC-2	0.238
NCI-H2087	0.176
HCC-44	0.533
NCI-H727	0.656
LK-2	0.158
NCI-H2126	0.945
NCI-H1793	0.203
H3255	0.649
LC-2-ad	0.44
LU99A	0.239
ChaGo-K-1	0.22

Cell Line	relative viability
NCI-H358	0.103
NCI-H322M	0.421
HCC-78	0.415
LXF-289	0.16
BEN	0.673
HARA	0.123
SW 900	0.294
HCC-827	0.387
LOU-NH91	0.422
A-427	0.222
NCI-H647	0.258
PC-3 [JPC-3]	0.837
NCI-H1755	0.438
NCI-H650	0.455
NCI-H3122	0.438
NCI-H441	0.314

Same assay, conditions: first compound 2 µM

Cell Line	relative viability
RERF-LC-KJ	0.279
NCI-H1651	0.356
NCI-H1734	0.196
NCI-H596	0.435
LCLC-97TM1	0.0986
EMC-BAC-2	0.225
NCI-H2087	0.157
HCC-44	0.327
NCI-H727	0.442
LK-2	0.21
NCI-H2126	0.331
NCI-H1793	0.222
H3255	0.701
LC-2-ad	0.345
LU99A	0.177
ChaGo-K-1	0.223
NCI-H358	0.0821
NCI-H322M	0.412
HCC-78	0.28
LXF-289	0.165
BEN	0.465
HARA	0.0865
SW 900	0.237
HCC-827	0.38
LOU-NH91	0.344
A-427	0.187
NCI-H647	0.131
PC-3 [JPC-3]	0.613
NCI-H1755	0.403
